Measurements reported in the NIST ThermoML archive (doi:10.1021/acs.jced.5b00820).
Numbers after ± are expanded uncertainties.

Assay: xn = mol fraction of the nth substance listed
Conditions: 102.2 kPa, Liquid, Vibrating tube method

C[Si](C)(O[Si](C)(C)c1ccccc1)c1ccccc1 [1,3-diphenyltetramethyldisiloxane] + C=C[Si]1(C)O[Si](C)(C=C)O[Si](C)(C=C)O[Si](C)(C=C)O1
mass density (308.15 K, x1 = 0.0511): 972.67 ± 0.21 kg/m3
mass density (308.15 K, x1 = 0.1004): 972.68 ± 0.21 kg/m3
mass density (308.15 K, x1 = 0.1503): 972.67 ± 0.21 kg/m3
mass density (308.15 K, x1 = 0.2): 972.66 ± 0.21 kg/m3
mass density (308.15 K, x1 = 0.2537): 972.63 ± 0.21 kg/m3
mass density (308.15 K, x1 = 0.3001): 972.56 ± 0.21 kg/m3
mass density (308.15 K, x1 = 0.3507): 972.42 ± 0.21 kg/m3
mass density (308.15 K, x1 = 0.4002): 972.3 ± 0.21 kg/m3
mass density (308.15 K, x1 = 0.4503): 972.13 ± 0.21 kg/m3
mass density (308.15 K, x1 = 0.4999): 971.87 ± 0.21 kg/m3
mass density (308.15 K, x1 = 0.5501): 971.69 ± 0.21 kg/m3
mass density (308.15 K, x1 = 0.597): 971.42 ± 0.21 kg/m3
mass density (308.15 K, x1 = 0.6498): 971.17 ± 0.21 kg/m3
mass density (308.15 K, x1 = 0.7005): 970.8 ± 0.21 kg/m3
mass density (308.15 K, x1 = 0.7492): 970.45 ± 0.21 kg/m3
mass density (308.15 K, x1 = 0.8001): 970.05 ± 0.21 kg/m3
mass density (308.15 K, x1 = 0.8497): 969.63 ± 0.21 kg/m3
mass density (308.15 K, x1 = 0.8999): 969.05 ± 0.21 kg/m3
mass density (308.15 K, x1 = 0.9502): 968.57 ± 0.21 kg/m3
mass density (308.15 K, x1 = 1): 968.05 ± 0.21 kg/m3
mass density (313.15 K, x1 = 0.0511): 967.57 ± 0.21 kg/m3
mass density (313.15 K, x1 = 0.1004): 967.63 ± 0.21 kg/m3
mass density (313.15 K, x1 = 0.1503): 967.67 ± 0.21 kg/m3
mass density (313.15 K, x1 = 0.2): 967.72 ± 0.21 kg/m3
mass density (313.15 K, x1 = 0.2537): 967.74 ± 0.21 kg/m3
mass density (313.15 K, x1 = 0.3001): 967.72 ± 0.21 kg/m3
mass density (313.15 K, x1 = 0.3507): 967.63 ± 0.21 kg/m3
mass density (313.15 K, x1 = 0.4002): 967.56 ± 0.21 kg/m3
mass density (313.15 K, x1 = 0.4503): 967.44 ± 0.21 kg/m3
mass density (313.15 K, x1 = 0.4999): 967.23 ± 0.21 kg/m3
mass density (313.15 K, x1 = 0.5501): 967.12 ± 0.21 kg/m3
mass density (313.15 K, x1 = 0.597): 966.89 ± 0.21 kg/m3
mass density (313.15 K, x1 = 0.6498): 966.7 ± 0.21 kg/m3
mass density (313.15 K, x1 = 0.7005): 966.35 ± 0.21 kg/m3
mass density (313.15 K, x1 = 0.7492): 966.08 ± 0.21 kg/m3
mass density (313.15 K, x1 = 0.8001): 965.73 ± 0.21 kg/m3
mass density (313.15 K, x1 = 0.8497): 965.36 ± 0.21 kg/m3
mass density (313.15 K, x1 = 0.8999): 964.82 ± 0.21 kg/m3
mass density (313.15 K, x1 = 0.9502): 964.4 ± 0.21 kg/m3
mass density (313.15 K, x1 = 1): 963.94 ± 0.21 kg/m3
mass density (318.15 K, x1 = 0.0511): 962.46 ± 0.21 kg/m3
mass density (318.15 K, x1 = 0.1004): 962.58 ± 0.21 kg/m3
mass density (318.15 K, x1 = 0.1503): 962.67 ± 0.21 kg/m3
mass density (318.15 K, x1 = 0.2): 962.77 ± 0.21 kg/m3
mass density (318.15 K, x1 = 0.2537): 962.86 ± 0.21 kg/m3
mass density (318.15 K, x1 = 0.3001): 962.9 ± 0.21 kg/m3
mass density (318.15 K, x1 = 0.3507): 962.84 ± 0.21 kg/m3
mass density (318.15 K, x1 = 0.4002): 962.83 ± 0.21 kg/m3
mass density (318.15 K, x1 = 0.4503): 962.77 ± 0.21 kg/m3
mass density (318.15 K, x1 = 0.4999): 962.58 ± 0.21 kg/m3
mass density (318.15 K, x1 = 0.5501): 962.54 ± 0.21 kg/m3
mass density (318.15 K, x1 = 0.597): 962.34 ± 0.21 kg/m3
mass density (318.15 K, x1 = 0.6498): 962.23 ± 0.21 kg/m3
mass density (318.15 K, x1 = 0.7005): 961.92 ± 0.21 kg/m3
mass density (318.15 K, x1 = 0.7492): 961.71 ± 0.21 kg/m3
mass density (318.15 K, x1 = 0.8001): 961.41 ± 0.21 kg/m3
mass density (318.15 K, x1 = 0.8497): 961.11 ± 0.21 kg/m3
mass density (318.15 K, x1 = 0.8999): 960.59 ± 0.21 kg/m3
mass density (318.15 K, x1 = 0.9502): 960.23 ± 0.21 kg/m3
mass density (318.15 K, x1 = 1): 959.84 ± 0.21 kg/m3
mass density (323.15 K, x1 = 0.0511): 957.29 ± 0.21 kg/m3
mass density (323.15 K, x1 = 0.1004): 957.53 ± 0.21 kg/m3
mass density (323.15 K, x1 = 0.1503): 957.67 ± 0.21 kg/m3
mass density (323.15 K, x1 = 0.2): 957.83 ± 0.21 kg/m3
mass density (323.15 K, x1 = 0.2537): 957.97 ± 0.21 kg/m3
mass density (323.15 K, x1 = 0.3001): 958.06 ± 0.21 kg/m3
mass density (323.15 K, x1 = 0.3507): 958.04 ± 0.21 kg/m3
mass density (323.15 K, x1 = 0.4002): 958.06 ± 0.21 kg/m3
mass density (323.15 K, x1 = 0.4503): 958.08 ± 0.21 kg/m3
mass density (323.15 K, x1 = 0.4999): 957.92 ± 0.21 kg/m3
mass density (323.15 K, x1 = 0.5501): 957.94 ± 0.21 kg/m3
mass density (323.15 K, x1 = 0.597): 957.8 ± 0.21 kg/m3
mass density (323.15 K, x1 = 0.6498): 957.76 ± 0.21 kg/m3
mass density (323.15 K, x1 = 0.7005): 957.49 ± 0.21 kg/m3
mass density (323.15 K, x1 = 0.7492): 957.33 ± 0.21 kg/m3
mass density (323.15 K, x1 = 0.8001): 957.09 ± 0.21 kg/m3
mass density (323.15 K, x1 = 0.8497): 956.85 ± 0.21 kg/m3
mass density (323.15 K, x1 = 0.8999): 956.35 ± 0.21 kg/m3
mass density (323.15 K, x1 = 0.9502): 956.03 ± 0.21 kg/m3
mass density (323.15 K, x1 = 1): 955.74 ± 0.21 kg/m3
mass density (328.15 K, x1 = 0.0511): 952.25 ± 0.21 kg/m3
mass density (328.15 K, x1 = 0.1004): 952.52 ± 0.21 kg/m3
mass density (328.15 K, x1 = 0.1503): 952.66 ± 0.21 kg/m3
mass density (328.15 K, x1 = 0.2): 952.88 ± 0.21 kg/m3
mass density (328.15 K, x1 = 0.2537): 953.1 ± 0.21 kg/m3
mass density (328.15 K, x1 = 0.3001): 953.26 ± 0.21 kg/m3
mass density (328.15 K, x1 = 0.3507): 953.25 ± 0.21 kg/m3
mass density (328.15 K, x1 = 0.4002): 953.33 ± 0.21 kg/m3
mass density (328.15 K, x1 = 0.4503): 953.42 ± 0.21 kg/m3
mass density (328.15 K, x1 = 0.4999): 953.25 ± 0.21 kg/m3
mass density (328.15 K, x1 = 0.5501): 953.39 ± 0.21 kg/m3
mass density (328.15 K, x1 = 0.597): 953.24 ± 0.21 kg/m3
mass density (328.15 K, x1 = 0.6498): 953.3 ± 0.21 kg/m3
mass density (328.15 K, x1 = 0.7005): 953.06 ± 0.21 kg/m3
mass density (328.15 K, x1 = 0.7492): 952.96 ± 0.21 kg/m3
mass density (328.15 K, x1 = 0.8001): 952.78 ± 0.21 kg/m3
mass density (328.15 K, x1 = 0.8497): 952.59 ± 0.21 kg/m3
mass density (328.15 K, x1 = 0.8999): 952.09 ± 0.21 kg/m3
mass density (328.15 K, x1 = 0.9502): 951.87 ± 0.21 kg/m3
mass density (328.15 K, x1 = 1): 951.65 ± 0.21 kg/m3
